This experiment deals with T1, human GLP-1 receptor (Homo sapiens, UniProt P43220).
T1 construct: expressed in transfected cells
T1 sequence (P43220 24-463): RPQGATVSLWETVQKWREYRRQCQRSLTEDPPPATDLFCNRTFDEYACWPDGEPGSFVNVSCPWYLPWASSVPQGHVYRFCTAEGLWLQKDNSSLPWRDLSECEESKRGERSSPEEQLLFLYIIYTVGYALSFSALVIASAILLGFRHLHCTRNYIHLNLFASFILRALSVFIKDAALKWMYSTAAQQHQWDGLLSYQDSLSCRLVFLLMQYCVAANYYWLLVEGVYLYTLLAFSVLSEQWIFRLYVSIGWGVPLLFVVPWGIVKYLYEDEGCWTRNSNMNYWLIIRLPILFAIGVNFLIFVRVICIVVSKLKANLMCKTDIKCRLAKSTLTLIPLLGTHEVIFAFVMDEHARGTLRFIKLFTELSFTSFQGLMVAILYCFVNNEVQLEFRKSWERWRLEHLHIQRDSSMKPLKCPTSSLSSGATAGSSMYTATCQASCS
Kind of experiment: GLP-1R cAMP assay (cAMP accumulation in CHO cells stably overexpressing the human GLP-1 receptor, HitHunter kit). Conditions: CHO cells stably overexpressing human GLP-1R, 30 min, 20-point dose response in triplicate. It counts as cell-based. On the procedure: CAMP accumulation was measured in Chinese hamster ovary (CHO) cells (10,000 cells/well) stably overexpressing the human GLP-1 receptor using the HitHunter CAMP Assay for Small Molecules Kit (Eurofins). Briefly, cells were grown in Ham's F12 Nutrient Mix with 10% FBS, and lifted with Cell Dissociation Buffer, Enzyme free, PBS based (ThermoFisher). Cells were pelleted, and resuspended in Hank's buffered saline solution with 10 mM HEPES, and 625 μM 3-isobutyl-1-methylxanthine. The anti-cAMP antibody reagent was then added to cells at a 1:2 ratio and 5 μL of mixture was seeded in 384-well small volume white assay plates, at 10,000 cells/well. Cells were then treated with 50 nL compound using an ECHO 550 acoustic dispenser (Labcyte) in a 20-point dose response format in triplicate for 30 min. Cells were then lysed, and detection reagents added according to the manufacturer's protocol. After overnight incubation, luminescence was measured using a Perkin Elmer Envision plate reader. Dose response curves were analyzed using GraphPad Prism 9.0.
In the Table, EC50 values are designated as follows: • A: 0 nM<EC50<0.1 nM; • B: 0.1 nM≤EC50<1.0 nM; • C: 1.0 nM≤EC50<10.0 nM; • D: 10.0 nM≤EC50<100 nM; • E: 100 nM≤EC50<500 nM; and • F: ≥500 nM
(Changes in cAMP serve as a functional read-out for many G protein-coupled receptors.)
For orientation: EC50 means the concentration giving half of the maximal effect. Read a high EC50 as a need for much substance. In the case of `C[C@H]1C[C@@H](Oc2ccnc(COc3ccc(F)cc3F)n2)CCN1Cc1nc2ccc(C(=O)O)cc2n1CC12CC(CO1)C2` [Compound 570, 2-{[(2S,4S)-4-({2-[(2,4-Difluorophenoxy)methyl]pyrimidin-4-yl}oxy)-2-methylpiperidin-1-yl]methyl}-1-({2-oxabicyclo[2.1.1]hexan-1-yl}methyl)-1H-1,3-benzodiazole-6-carboxylic acid], the EC50 was in the range of 0.1 to 1 nM.

The compound `C[C@H]1C[C@@H](Oc2ccnc(COc3ccc(F)cc3C#N)n2)CCN1Cc1nc2cnc(C(=O)O)cc2n1C[C@@H]1CCO1` [Compound 574, 2-{[(2S,4S)-4-({2-[(2-cyano-4-fluorophenoxy)methyl]pyrimidin-4-yl}oxy)-2-methylpiperidin-1-yl]methyl}-1-{[(2S)-oxetan-2-yl]methyl}-1H-imidazo[4,5-c]pyridine-6-carboxylic acid] showed an EC50 of 1 to 10 nM. As for `C[C@H]1C[C@@H](Oc2ccnc(COc3ccc(F)cc3F)n2)CCN1Cc1nc2ccc(C(=O)NS(=O)(=O)C3CC3)cc2n1C[C@@H]1CCO1` [Compound 564, N-(Cyclopropanesulfonyl)-2-{[(2S,4S)-4-({2-[(2,4-difluorophenoxy)methyl]pyrimidin-4-yl}oxy)-2-methylpiperidin-1-yl]methyl}-1-{[(2S)-oxetan-2-yl]methyl}-1H-1,3-benzodiazole-6-carboxamide], the EC50 lay in the range of 0.1 to 1 nM.

In the case of `N#CC[C@H]1C[C@@H](Oc2ccnc(COc3ccc(F)cc3Cl)n2)CCN1Cc1nc2ccc(C(=O)O)cc2n1C[C@@H]1CCO1` [Compound 557, 2-{[(2S,4S)-4-({2-[(2-Chloro-4-fluorophenoxy)methyl]pyrimidin-4-yl}oxy)-2-(cyanomethyl)piperidin-1-yl]methyl}-1-{[(2S)-oxetan-2-yl]methyl}-1H-1,3-benzodiazole-6-carboxylic acid], the EC50 fell in the range of 1 to 10 nM. `C[C@H]1C[C@@H](Oc2ccnc(COc3ccc(C#N)cn3)n2)CCN1Cc1nc2c(F)cc(C(=O)O)cc2n1C[C@@H]1CCO1` [Compound 604, 2-{[(2S,4S)-4-[(2-{[(5-cyanopyridin-2-yl)oxy]methyl}pyrimidin-4-yl)oxy]-2-methylpiperidin-1-yl]methyl}-4-fluoro-1-{[(2S)-oxetan-2-yl]methyl}-1H-1,3-benzodiazole-6-carboxylic acid] had an EC50 of 0.1 to 1 nM. Turning to `C[C@H]1C[C@@H](Oc2ccnc(COc3ccc(F)cc3F)n2)CCN1Cc1nc2ccc(C(=O)O)cc2n1C[C@H]1CCS1(=O)=O` [Compound 610, 2-(((2S,4S)-4-((2-((2,4-difluorophenoxy)methyl)pyrimidin-4-yl)oxy)-2-methylpiperidin-1-yl)methyl)-1-(((R)-1,1-dioxidothietan-2-yl)methyl)-1H-benzo[d]imidazole-6-carboxylic acid], the EC50 was in the range of 0.1 to 1 nM. `C[C@H]1C[C@@H](Oc2ccnc(COc3ccc(F)cc3C#N)n2)CCN1Cc1nc2ccc(C(=O)O)cc2n1C[C@H]1CCOC1` [Compound 558, 2-{[(2S,4S)-4-({2-[(2-cyano-4-fluorophenoxy)methyl]pyrimidin-4-yl}oxy)-2-methylpiperidin-1-yl]methyl}-1-{[(3R)-oxolan-3-yl]methyl}-1H-1,3-benzodiazole-6-carboxylic acid] came in with an EC50 of 0.1 to 1 nM. Then `O=C(O)c1cc(F)c2nc(CN3CCC(Oc4ccnc(COc5ncc(Cl)cc5F)n4)CC3)n(C[C@@H]3CCO3)c2c1` [Compound 605, 2-({4-[(2-{[(5-Chloro-3-fluoropyridin-2-yl)oxy]methyl}pyrimidin-4-yl)oxy]piperidin-1-yl}methyl)-4-fluoro-1-{[(2S)-oxetan-2-yl]methyl}-1H-1,3-benzodiazole-6-carboxylic acid], with below 0.1 nM; and `N#Cc1ccc(OCc2nccc(O[C@H]3CCN(Cc4nc5ccc(C(=O)O)cc5n4C[C@@H]4CCO4)[C@@H](C(F)(F)F)C3)n2)c(F)c1` [Compound 599, 2-{[(2R,4S)-4-({2-[(4-cyano-2-fluorophenoxy)methyl]pyrimidin-4-yl}oxy)-2-(trifluoromethyl)piperidin-1-yl]methyl}-1-{[(2S)-oxetan-2-yl]methyl}-1H-1,3-benzodiazole-6-carboxylic acid], with 0.1 to 1 nM.

For the origin of these results see patent US20260317309A1, “N-HETEROCYLIC GPCR RECEPTOR AGONISTS, PHARMACEUTICAL COMPOSITIONS COMPRISING THE SAME, AND METHODS FOR THEIR USE” (Carmot Therapeutics, Inc., priority 2022, published 2026).
